Measured values published in US20250170248A1, “SMARCA DEGRADERS AND USES THEREOF” (Kymera Therapeutics, Inc., priority 2021, published 2025).

Tests used:
Assay type in all cases: cell-based
[1] = biological target: T1, SMARCA2 (Homo sapiens, UniProt P51531); experiment: MSD SMARCA2 degradation in A549 cell line; conditions: for Dmax: A549, A549 cells; for Dmax / DC50: 24 h; for DC50 / SMARCA2 MSD A549 degradation 24 h: Average Dmax %: A549 cells; for DC50: read-out: SMARCA2 MSD A549 degradation 24 h: Average external-Abs DC50
T1 sequence (P51531 whole entry): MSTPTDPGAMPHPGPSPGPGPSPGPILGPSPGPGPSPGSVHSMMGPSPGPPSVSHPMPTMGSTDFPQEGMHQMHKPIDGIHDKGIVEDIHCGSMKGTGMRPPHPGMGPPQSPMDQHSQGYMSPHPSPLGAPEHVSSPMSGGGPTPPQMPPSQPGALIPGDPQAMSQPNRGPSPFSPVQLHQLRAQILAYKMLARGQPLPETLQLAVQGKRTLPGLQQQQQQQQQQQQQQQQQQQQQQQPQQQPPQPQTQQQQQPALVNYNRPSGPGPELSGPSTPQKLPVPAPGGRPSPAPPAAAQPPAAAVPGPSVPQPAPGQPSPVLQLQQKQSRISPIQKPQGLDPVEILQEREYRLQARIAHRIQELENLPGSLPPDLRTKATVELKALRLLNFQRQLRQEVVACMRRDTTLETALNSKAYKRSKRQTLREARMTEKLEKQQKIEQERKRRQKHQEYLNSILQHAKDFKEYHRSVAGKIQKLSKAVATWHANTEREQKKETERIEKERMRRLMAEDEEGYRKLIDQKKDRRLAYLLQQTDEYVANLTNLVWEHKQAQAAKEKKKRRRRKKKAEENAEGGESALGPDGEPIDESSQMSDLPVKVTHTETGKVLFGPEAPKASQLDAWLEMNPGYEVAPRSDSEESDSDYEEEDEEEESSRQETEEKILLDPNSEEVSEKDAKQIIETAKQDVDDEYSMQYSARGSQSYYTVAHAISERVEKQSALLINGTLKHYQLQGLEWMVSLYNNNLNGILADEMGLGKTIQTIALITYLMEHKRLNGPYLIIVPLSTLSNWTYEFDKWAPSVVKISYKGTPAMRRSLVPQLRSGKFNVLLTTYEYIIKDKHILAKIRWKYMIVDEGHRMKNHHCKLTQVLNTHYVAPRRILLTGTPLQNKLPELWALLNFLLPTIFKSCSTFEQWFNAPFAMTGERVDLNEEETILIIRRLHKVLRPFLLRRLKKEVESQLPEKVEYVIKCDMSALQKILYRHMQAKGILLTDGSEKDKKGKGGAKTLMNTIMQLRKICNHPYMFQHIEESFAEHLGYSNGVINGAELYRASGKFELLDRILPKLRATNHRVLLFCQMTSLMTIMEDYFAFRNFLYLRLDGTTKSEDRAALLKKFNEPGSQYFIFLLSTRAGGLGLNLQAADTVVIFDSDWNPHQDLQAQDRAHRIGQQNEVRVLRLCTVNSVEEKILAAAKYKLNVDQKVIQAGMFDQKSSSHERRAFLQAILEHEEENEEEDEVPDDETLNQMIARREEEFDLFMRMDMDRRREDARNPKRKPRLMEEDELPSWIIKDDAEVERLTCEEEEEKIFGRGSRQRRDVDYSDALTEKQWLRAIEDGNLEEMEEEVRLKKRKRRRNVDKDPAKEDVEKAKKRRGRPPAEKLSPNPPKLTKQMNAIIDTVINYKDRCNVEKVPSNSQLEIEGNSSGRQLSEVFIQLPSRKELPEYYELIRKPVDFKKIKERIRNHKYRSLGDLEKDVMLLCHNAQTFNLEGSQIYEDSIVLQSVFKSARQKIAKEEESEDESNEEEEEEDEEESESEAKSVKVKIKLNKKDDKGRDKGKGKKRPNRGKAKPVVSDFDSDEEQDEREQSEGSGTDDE
Description: Example 10. MSD SMARCA2 Degradation in A549 Cell Line
Cells were seeded into 96-well plates (A549 cells: 2×10^4 cells/well/100 ul media) and incubated overnight. The next day, 200 nL compound were added into the intermediate plate with Echo (Labcyte 550) from source plate containing a 3-fold serial dilution from top concentration of 1 mM. The culture medium was changed with 8 0ul of fresh medium and 80 μL of 2× compound solution was added into the well to make a final concentration of 1000 nM, 333.3 nM, 111.1 nM, 37.04 nM, 12.35 nM, 4.115 nM, 1.372 nM, 0.457 nM, 0.152 nM and 0 nM (DMSO). The wells were mixed and then incubated for 24 hours. The media was aspirated from the cultures and 60 ul pre-chilled PIPA lysis buffer (Boston BioProducts BP-115D) with protease/phosphatase inhibitor (Roche 05892791001/Roche 04906837001) was added into the well to lyze the cells for 20 minutes at 4° C. The MSD plate (L15XA) was coated with 40 uL cell lysate and incubated at 4° C. overnight. The next day, the plate was washed three times with TBST (CST #9997S), 150 ul/well. The MSD plates was blocked with 150 ul blocking buffer per well and shaked for 1 hr at RT, 600 rpm. The blocking buffer was 3% Blocker A (MSD, R93BA-4) in TBST. The MSD plate was washed three times with 150 uL/well of TBST and 25 ul/well of detection antibody (Rabbit anti-SMARCA2/BRM antibody, 100 μg/mL, ab223735) was added at final concentration of 1 μg/mL diluted in 1% Blocking buffer and shaken for 1 hour at RT, 600 rpm. The MSD plate was washed three times with 150 ul/well of TBST and 25 ul/well of SULFO-TAG anti-rabbit antibody (MSD, R32AB-1) was added at final concentration of 1 μg/ml diluted in 1% Blocking buffer and shaken for 1 hour at RT, 600 rpm. The MSD plate was washed three times with 150 uL/well of TBST and 150 ul/well of 2× MSD reading buffer diluted from 4× (MSD, R92TC-2) with water was added. Lastly, the MSD instrument was read.
The letter codes for SMARCA2 degradation potency (DC50) include: A (<10 nM), B (10-50 nM), C (>50-100 nM), and D (>100 nM). The letter codes for the percentage of SMARCA degradation after 24 hours (Dmax %) include: A (>90% degradation), B (>70-90% degradation), C (50-70% degradation), and D (<50% degradation).

[2] = biological target: T2, SMARCA4 (Homo sapiens, UniProt P51532); experiment: SMARCA4 Western blot degradation in MV4-11 cells; conditions: for Dmax: MV4-11, MV4-11 cells, read-out: SMARCA4 MSD MV411 degradation 24 h: average Dmax %; for Dmax / DC50: 24 h; for DC50: read-out: SMARCA4 MSD MV411 degradation 24 h: Mean external-Abs DC50
T2 construct: SMARCA2/SMARCA4 protein degradation selectivity in MV4-11 cells; endogenous in cells; host or cells: MV4-11
T2 sequence (P51532 whole entry): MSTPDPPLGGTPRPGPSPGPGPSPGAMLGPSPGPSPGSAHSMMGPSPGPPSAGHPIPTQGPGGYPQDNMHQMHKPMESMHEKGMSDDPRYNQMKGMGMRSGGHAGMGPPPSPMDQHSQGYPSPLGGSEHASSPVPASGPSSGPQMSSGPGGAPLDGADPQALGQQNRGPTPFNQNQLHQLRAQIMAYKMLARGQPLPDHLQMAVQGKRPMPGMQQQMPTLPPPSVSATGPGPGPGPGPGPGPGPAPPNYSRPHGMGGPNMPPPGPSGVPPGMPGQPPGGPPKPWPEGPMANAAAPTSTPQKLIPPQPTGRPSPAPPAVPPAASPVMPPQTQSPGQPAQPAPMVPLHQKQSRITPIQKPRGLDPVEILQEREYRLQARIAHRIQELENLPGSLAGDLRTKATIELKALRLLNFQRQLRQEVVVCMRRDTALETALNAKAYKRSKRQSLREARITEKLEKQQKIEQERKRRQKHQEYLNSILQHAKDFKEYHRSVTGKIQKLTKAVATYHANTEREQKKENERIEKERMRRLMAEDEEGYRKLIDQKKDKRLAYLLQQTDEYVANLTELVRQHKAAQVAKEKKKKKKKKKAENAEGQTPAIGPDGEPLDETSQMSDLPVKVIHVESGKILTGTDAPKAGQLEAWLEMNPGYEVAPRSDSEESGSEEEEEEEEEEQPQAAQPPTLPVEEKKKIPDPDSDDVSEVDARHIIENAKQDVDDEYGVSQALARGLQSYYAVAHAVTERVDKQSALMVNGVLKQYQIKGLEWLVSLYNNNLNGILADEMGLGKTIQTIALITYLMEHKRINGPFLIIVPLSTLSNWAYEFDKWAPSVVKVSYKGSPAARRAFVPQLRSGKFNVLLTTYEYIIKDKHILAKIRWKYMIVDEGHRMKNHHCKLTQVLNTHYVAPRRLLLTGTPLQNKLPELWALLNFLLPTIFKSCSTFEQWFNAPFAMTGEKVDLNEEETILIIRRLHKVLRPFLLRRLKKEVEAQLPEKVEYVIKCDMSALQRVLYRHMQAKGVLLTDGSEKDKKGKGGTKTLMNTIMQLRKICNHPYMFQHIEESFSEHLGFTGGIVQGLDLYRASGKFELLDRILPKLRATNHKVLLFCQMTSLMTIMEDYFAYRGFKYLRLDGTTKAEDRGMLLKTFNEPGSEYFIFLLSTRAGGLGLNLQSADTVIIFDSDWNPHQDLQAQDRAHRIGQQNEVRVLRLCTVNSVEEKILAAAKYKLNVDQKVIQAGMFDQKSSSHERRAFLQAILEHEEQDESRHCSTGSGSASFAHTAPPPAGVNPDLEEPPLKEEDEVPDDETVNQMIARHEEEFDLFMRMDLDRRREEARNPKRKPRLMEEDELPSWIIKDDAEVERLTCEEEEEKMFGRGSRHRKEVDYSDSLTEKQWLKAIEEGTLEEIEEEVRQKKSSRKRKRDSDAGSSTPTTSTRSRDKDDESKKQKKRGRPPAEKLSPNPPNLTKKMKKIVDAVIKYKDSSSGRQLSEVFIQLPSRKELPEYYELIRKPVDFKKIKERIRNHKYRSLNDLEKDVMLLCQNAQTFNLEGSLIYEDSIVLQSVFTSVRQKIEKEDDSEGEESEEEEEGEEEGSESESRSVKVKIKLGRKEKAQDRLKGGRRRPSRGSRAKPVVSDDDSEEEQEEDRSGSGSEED
Description: Example 11. SMARCA2 and SMARCA4 Western Blot MV4-11 Degradation
Cells were seeded into 6-well plates (MV4-11:4×10^6 cells/well/1 ml) and 1 ml of 2× compound solution was added into the well to make the final concentration and the plates were mixed well and incubated for 24 hours (No cytotoxicity was observed). The cell were collected with media and spun at 3000 rpm for 5 minutes. The supernatant was aspirated and the well and the cells were washed with cold PBS once and combined for centrifugation again; the supernatant aspirated again. 200 uL pre-chilled RIPA lysis buffer (Boston BioProducts BP-115D) with protease/phosphatase inhibitor (Roche 05892791001/Roche 04906837001) was directly added into the tube to lyze the cells for 20 minutes on ice. The cell lysate were collected into EP tubes and spun at 13000 rpm for 20 minutes and 72 uL supernatant was transferred to a fresh EP tube containing 18 μL of 5× loading buffer (Beyotime Bio P0015) to make the loading samples. The samples were heated to 100° C. for 10 minutes and cooled to RT and microcentrifuged. 20 μL of samples were loaded onto SDS-PAGE gel (Novex, WG1402BOX) and the gel was run at 80 V for 20 minutes and 120 V for 1.5 hours. The samples were electrotransfer to a NC membrane using wet-transfer method with 250 mA for 2.5 hours. The membrane was blocked with LICOR blocking buffer (LI COR,927-50000) for 1 hour. The membrane was washed three times with TBST(CST #9997S), 5 minutes each. Incubation was performed with primary antibody prepared in blocking buffer with 0.1% Tween-20 (Solarbio, P8220) at 4° C. overnight (Anti-SMARCA2/BRM antibody (ab15597) 1:500; Anti-BRG1 antibody [EPR3912](ab108318) 1:1000; Rabbit anti-Bafl80 antibody [EPR15860](Abcam,ab196022) 1:1000; mouse anti-beta-Actin (8H10D10) (CST #3700) 1:10000). The membrane was washed three times with TBST, 5 minutes each. Incubation with secondary antibody was performed for 1 hour at RT (anti-rabbit IgG (Licor,926-32211) 1:5000; anti-mouse IgG (LI-COR, 926-68070) 1:5000). The membrane was washed three times with 5 minutes each and lastly the LiCOR was read.
The letter codes for SMARCA2/4 degradation potency (DC50) include: A (<1 nM), B (1-10 nM), C (>10-100 nM), and D (>100 nM). The letter codes for the percentage of SMARCA2/4 degradation after 24 hours (Dmax %) include: A (>90% degradation), B (>70-90% degradation), C (50-70% degradation), and D (<50% degradation). The letter codes of SMARCA2/4 selectivity include: A (>500 fold), B (>100-500 fold), C (10-100 fold), and D (<10 fold). Table 8. SMARCA2/4 Selectivity Results

[3] = biological target: T1, SMARCA2; experiment: SMARCA2 Western blot degradation in MV4-11 cells; set-up: SMARCA2/SMARCA4 protein degradation selectivity in MV4-11 cells; endogenous in cells; host or cells: MV4-11; conditions: for Dmax: MV4-11, MV4-11 cells, read-out: SMARCA2 MSD MV411 degradation 24 h: average Dmax %; for Dmax / DC50 / SMARCA2 MSD MV411 degradation 24 h: average Dmax %: 24 h; for DC50 / Selectivity in MV411 / SMARCA2 MSD MV411 degradation 24 h: average Dmax %: MV4-11 cells; for DC50: read-out: SMARCA2 MSD MV411 degradation 24 h: Mean external-Abs DC50; for Selectivity in MV411: SMARCA2/4 selectivity

Row | SMILES | Dmax [1] [%] | DC50 [1] [nM] | Dmax [2] [%] | DC50 ([2]; MV4-11 cells) [nM] | Dmax [3] [%] | DC50 [3] [nM] | Selectivity in MV411 [3] | SMARCA2 MSD A549 degradation 24 h: Average Dmax % [1] | SMARCA4 MSD MV411 degradation 24 h: average Dmax % ([2]; MV4-11 cells) | SMARCA2 MSD MV411 degradation 24 h: average Dmax % [3]
1 | Cc1ncsc1-c1ccc(CNC(=O)[C@@H]2C[C@@H](O)CN2C(=O)C(c2cc(OC[C@H]3CC[C@H](N4CCC(c5cnc(N6CCc7[nH]c8nnc(-c9ccccc9O)cc8c7[C@H]6C)nc5)CC4)CC3)no2)C(C)C)cc1 (single isomer, unassigned) [I-1] | > 90 | < 10 | > 90 | 1 to 10 | > 90 | 1 to 10 | D (D (<10 fold)) |  |  | 
2 | Cc1ncsc1-c1ccc(CNC(=O)[C@@H]2C[C@@H](O)CN2C(=O)C(c2cc(OC[C@H]3CC[C@@H](N4CCC(c5cnc(N6CCc7[nH]c8nnc(-c9ccccc9O)cc8c7[C@H]6C)nc5)CC4)CC3)no2)C(C)C)cc1 (single isomer, unassigned) [I-2] | 70 to 90 | 10 to 50 | > 90 | 10 to 100 | > 90 | 1 to 10 | D (D (<10 fold)) |  |  | 
3 | Cc1ncsc1-c1ccc(CNC(=O)[C@@H]2C[C@@H](O)CN2C(=O)[C@@H](NC(=O)[C@H]2CC3(C2)C[C@H](N2CCC(c4ccnc(N5CCN6c7cc(-c8ccccc8O)nnc7NC[C@@H]6C5)n4)CC2)C3)C(C)(C)C)cc1 (single isomer, unassigned) [I-3] | 70 to 90 | > 100 | 50 to 70 | > 100 | 70 to 90 | 1 to 10 | A (A (>500 fold)) |  |  | 
4 | Cc1ncsc1-c1ccc(CNC(=O)[C@@H]2C[C@@H](O)CN2C(=O)[C@@H](NC(=O)[C@H]2CC3(C2)C[C@H](N2CCC(c4ccnc(N5CCN6c7cc(-c8ccccc8O)nnc7NC[C@@H]6C5)n4)CC2)C3)C(C)(C)C)cc1 (single isomer, unassigned) [I-4] |  | > 100 |  | > 100 |  | 1 to 10 | B (B (>100-500 fold)) | C (C (50-70% degradation)) | D (D (<50% degradation)) | B (B (>70-90% degradation))
5 | Cc1ncsc1-c1ccc(CNC(=O)[C@@H]2C[C@@H](O)CN2C(=O)[C@@H](NC(=O)[C@H]2CC3(C2)C[C@H](N2CCC(c4ccnc(N5CCN6c7cc(-c8ccccc8O)nnc7NC[C@H]6C5)n4)CC2)C3)C(C)(C)C)cc1 (single isomer, unassigned) [I-5] | > 90 | 10 to 50 | < 50 | > 100 | > 90 | 1 to 10 | A (A (>500 fold)) |  |  | 
6 | Cc1ncsc1-c1ccc(CNC(=O)[C@@H]2C[C@@H](O)CN2C(=O)C(c2cc(N3CCC(CCN4CCC(c5cnc(N6CCc7[nH]c8nnc(-c9ccccc9O)cc8c7[C@@H]6C)nc5)CC4)CC3)no2)C(C)C)cc1 (single isomer, unassigned) [I-8] | > 90 | 10 to 50 | 70 to 90 | 10 to 100 | 70 to 90 | 1 to 10 | D (D (<10 fold)) |  |  | 
7 | Cc1ncsc1-c1ccc(CNC(=O)[C@@H]2C[C@@H](O)CN2C(=O)C(c2cc(N3CC4(CCC(N5CCC(c6cnc(N7CCc8[nH]c9nnc(-c%10ccccc%10O)cc9c8[C@@H]7C)nc6)CC5)CC4)C3)no2)C(C)C)cc1 (single isomer, unassigned) [I-9] | 70 to 90 | 10 to 50 | 70 to 90 | 10 to 100 | > 90 | 1 to 10 | C (C (10-100 fold)) |  |  | 
8 | C#Cc1ccc(CNC(=O)[C@@H]2C[C@@H](O)CN2C(=O)[C@@H](NC(=O)C2CCC3(CC2)CC(N2CCC(c4cnc(N5CCN6c7cc(-c8ccccc8O)nnc7NC[C@H]6C5)nc4)CC2)C3)C2CCNCC2)cc1 (stereo partly drawn) [I-132] | < 50 | > 100 |  |  | < 50 | > 100 |  |  |  | 

The remaining lines, values ahead:

Row | Dmax [1] [%] | DC50 [1] [nM] | Dmax [2] [%] | DC50 ([2]; MV4-11 cells) [nM] | Dmax [3] [%] | DC50 [3] [nM] | Selectivity in MV411 [3] | SMARCA2 MSD A549 degradation 24 h: Average Dmax % [1] | SMARCA4 MSD MV411 degradation 24 h: average Dmax % ([2]; MV4-11 cells) | SMARCA2 MSD MV411 degradation 24 h: average Dmax % [3] | SMILES
9 | > 90 | > 100 | < 50 | > 100 | 50 to 70 | 10 to 100 | C (C (10-100 fold)) |  |  |  | C#Cc1ccc(CNC(=O)[C@@H]2C[C@@H](O)CN2C(=O)[C@@H](NC(=O)N2CC3(CC(N4CCC(N5CCC(N6CCc7[nH]c8nnc(-c9ccccc9O)cc8c7[C@H]6C)C5)CC4)C3)C2)C(C)(C)C)cc1 (mixture of isomers) [I-188]
10 | 70 to 90 | > 100 | < 50 | > 100 | 50 to 70 | 10 to 100 | B (B (>100-500 fold)) |  |  |  | C#Cc1ccc(CNC(=O)[C@@H]2C[C@@H](O)CN2C(=O)[C@@H](NC(=O)N2CCCC(N3CCC(c4cnc(N5CCN6c7cc(-c8ccccc8O)nnc7NC[C@H]6C5)nc4)CC3)C2)C(C)(C)C)cc1 (mixture of isomers) [I-245]
11 |  | > 100 |  |  |  | 10 to 100 |  | A (A (>90% degradation)) |  | C (C (50-70% degradation)) | C#Cc1ccc(CNC(=O)[C@@H]2C[C@@H](O)CN2C(=O)[C@@H](NC(=O)[C@H]2CCC3(CC2)C[C@H](N2CCC(c4cnc(N5CCN6c7cc(-c8cccc(Cl)c8O)nnc7NC[C@@H]6C5)nc4)CC2)C3)C(C)(C)C)cc1 (single isomer, unassigned) [I-154]
12 | > 90 | 50 to 100 |  |  |  | 1 to 10 |  |  |  | B (B (>70-90% degradation)) | C#Cc1ccc(CNC(=O)[C@@H]2C[C@@H](O)CN2C(=O)[C@@H](NC(=O)[C@H]2CCC3(CC2)C[C@H](N2CCC(c4cnc(N5CCN6c7cc(-c8cccc(F)c8O)nnc7NC[C@H]6C5)nc4)CC2)C3)C(C)(C)C)cc1 (single isomer, unassigned) [I-157]
